As usually defined, the IC50 is the concentration needed to halve the response being measured.

Structures are written as SMILES.

T1 sequence (Q15858 whole entry): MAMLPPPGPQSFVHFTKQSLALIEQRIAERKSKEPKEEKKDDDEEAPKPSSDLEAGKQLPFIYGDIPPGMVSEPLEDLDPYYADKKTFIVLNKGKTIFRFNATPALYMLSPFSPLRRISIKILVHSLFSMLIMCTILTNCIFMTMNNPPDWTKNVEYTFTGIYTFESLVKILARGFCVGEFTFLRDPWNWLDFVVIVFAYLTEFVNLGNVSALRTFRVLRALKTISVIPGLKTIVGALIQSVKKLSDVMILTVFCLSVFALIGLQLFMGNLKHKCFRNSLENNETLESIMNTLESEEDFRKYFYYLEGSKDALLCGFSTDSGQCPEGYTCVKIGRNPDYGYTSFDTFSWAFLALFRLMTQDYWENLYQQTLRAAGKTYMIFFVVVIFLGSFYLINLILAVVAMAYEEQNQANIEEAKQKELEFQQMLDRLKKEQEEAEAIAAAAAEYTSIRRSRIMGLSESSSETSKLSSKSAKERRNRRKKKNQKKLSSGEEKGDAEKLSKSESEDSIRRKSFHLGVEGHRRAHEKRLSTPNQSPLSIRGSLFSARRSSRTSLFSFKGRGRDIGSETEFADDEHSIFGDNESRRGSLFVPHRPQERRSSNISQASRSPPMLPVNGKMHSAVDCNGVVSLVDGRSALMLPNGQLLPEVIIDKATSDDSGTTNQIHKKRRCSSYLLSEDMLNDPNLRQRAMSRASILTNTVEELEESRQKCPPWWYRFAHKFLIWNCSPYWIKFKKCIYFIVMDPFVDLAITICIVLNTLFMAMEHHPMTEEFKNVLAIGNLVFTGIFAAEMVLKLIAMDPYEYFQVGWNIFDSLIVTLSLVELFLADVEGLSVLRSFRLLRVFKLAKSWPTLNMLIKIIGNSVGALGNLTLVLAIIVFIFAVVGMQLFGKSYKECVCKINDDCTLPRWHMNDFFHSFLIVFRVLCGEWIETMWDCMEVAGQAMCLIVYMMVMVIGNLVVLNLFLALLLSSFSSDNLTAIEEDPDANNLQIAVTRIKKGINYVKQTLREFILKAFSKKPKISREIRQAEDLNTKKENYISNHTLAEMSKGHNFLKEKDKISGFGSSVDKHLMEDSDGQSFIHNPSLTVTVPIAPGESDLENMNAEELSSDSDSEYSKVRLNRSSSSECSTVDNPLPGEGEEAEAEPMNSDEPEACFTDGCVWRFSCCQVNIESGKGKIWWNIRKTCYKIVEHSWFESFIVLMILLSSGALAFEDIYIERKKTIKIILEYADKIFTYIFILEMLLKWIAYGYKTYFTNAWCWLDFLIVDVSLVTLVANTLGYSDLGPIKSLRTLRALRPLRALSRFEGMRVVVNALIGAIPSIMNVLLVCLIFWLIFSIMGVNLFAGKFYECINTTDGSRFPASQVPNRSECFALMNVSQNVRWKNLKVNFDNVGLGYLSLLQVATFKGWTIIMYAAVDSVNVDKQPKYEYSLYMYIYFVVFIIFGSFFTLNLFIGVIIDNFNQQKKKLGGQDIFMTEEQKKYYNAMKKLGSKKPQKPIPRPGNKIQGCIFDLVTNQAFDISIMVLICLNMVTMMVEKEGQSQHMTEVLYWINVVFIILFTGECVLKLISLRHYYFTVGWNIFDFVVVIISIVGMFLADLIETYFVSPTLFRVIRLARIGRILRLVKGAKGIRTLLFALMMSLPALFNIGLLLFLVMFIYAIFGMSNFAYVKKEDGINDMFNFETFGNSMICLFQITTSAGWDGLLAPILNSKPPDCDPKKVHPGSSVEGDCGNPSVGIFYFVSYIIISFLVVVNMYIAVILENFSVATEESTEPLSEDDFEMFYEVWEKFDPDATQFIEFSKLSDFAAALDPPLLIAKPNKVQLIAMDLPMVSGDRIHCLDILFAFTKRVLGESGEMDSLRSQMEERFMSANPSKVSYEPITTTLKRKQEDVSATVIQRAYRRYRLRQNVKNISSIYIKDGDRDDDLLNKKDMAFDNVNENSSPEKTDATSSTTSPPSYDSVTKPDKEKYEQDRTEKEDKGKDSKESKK

The first experiment has as its target T1, Nav1.7 (or SCN9A) channel; HEK cells stably transfected with hSCN9A (Homo sapiens, UniProt Q15858).
T1 construct: expressed in transfected cells
The experiment is described as follows: Nav1.7 block, PatchXpress 7000 automated whole-cell voltage clamp, estimated IC50 (EIC50). The experiment is classed as cell-based. The note with it: PatchXpress platform; hSCN9A HEK cells held at V1/2 of inactivation; estimated IC50.
Regarding `O=S(=O)(Nc1nccs1)c1ccc(Oc2cc(C(F)(F)F)nn2-c2ccccc2F)c(F)c1` [Example 230, 3-fluoro-4-[2-(2-fluoro-phenyl)-5-trifluoromethyl-2H-pyrazol-3-yloxy]-N-thiazol-2-yl-benzenesulfonamide], the IC50 is 710 nM. Same read-out and setting: with `N#Cc1cc(S(=O)(=O)Nc2ncns2)ccc1Oc1ccc(CN2CCC2)cc1F` [Example 61, 4-[4-(azetidin-1-ylmethyl)-2-fluorophenoxy]-3-cyano-N-1,2,4-thiadiazol-5-ylbenzenesulfonamide] the figure was 25700 nM; with `N#Cc1cc(S(=O)(=O)Nc2nccs2)ccc1Oc1ccccc1-c1ccccc1` [Example 165, 4-(biphenyl-2-yloxy)-3-cyano-N-(thiazol-2-yl)benzenesulfonamide], 50 nM; with `CC(C)c1nn(-c2ccccc2Cl)cc1Oc1ccc(S(=O)(=O)Nc2ncc(Cl)s2)cc1C#N` [Example 140, 4-{[1-(2-chlorophenyl)-3-isopropyl-1H-pyrazol-4-yl]oxy}-N-(5-chloro-1,3-thiazol-2-yl)-3-cyanobenzenesulfonamide], 3410 nM. Consider `O=S(=O)(Nc1nccs1)c1ccc(Oc2ccccc2-c2ccccc2)cc1` [Example 276, 4-(biphenyl-2-yloxy)-N-thiazol-2-yl-benzenesulfonamide], for which the IC50 was 550 nM.

Regarding `Cn1nccc1-c1cc(F)ccc1Oc1ccc(S(=O)(=O)Nc2ncns2)cc1C#N` [Example 1, 3-cyano-4-(4-fluoro-2-(1-methyl-1H-pyrazol-5-yl)phenoxy)-N-(1,2,4-thiadiazol-5-yl)benzenesulfonamide], the IC50 is 90 nM.

The same experiment, now with this note: estimated IC50; hSCN9A HEK cells, PatchXpress platform; Examples 283-814.
As to `N#Cc1cc(S(=O)(=O)Nc2ncccc2F)ccc1Oc1ccccc1-c1ccccc1` [Example 420, 4-(biphenyl-2-yloxy)-3-cyano-N-(3-fluoropyridin-2-yl)benzenesulfonamide], the IC50 was 24000 nM.

In the case of `Cc1nc(-c2cccc(Oc3ccc(S(=O)(=O)Nc4ccc(F)cn4)cc3C#N)c2)no1` [Example 574, 3-cyano-N-(5-fluoropyridin-2-yl)-4-[3-(5-methyl-1,2,4-oxadiazol-3-yl)phenoxy]benzenesulfonamide], the IC50 is more than 3000 nM. Same read-out and setting: with `N#Cc1cc(S(=O)(=O)Nc2ncc(F)s2)ccc1Oc1ccc(Cl)c(Cn2ccnc2)c1` [Example 530, 4-[4-chloro-3-(1H-imidazol-1-ylmethyl)phenoxy]-3-cyano-N-(5-fluoro-1,3-thiazol-2-yl)benzenesulfonamide] the figure was 230 nM. Same read-out and setting: with `O=S(=O)(Nc1ccc(F)cn1)c1cc(Cl)c(Oc2ccc(C(F)(F)F)cc2C2CCNCC2)cc1F` [Example 800, 5-Chloro-2-fluoro-N-(5-fluoropyridin-2-yl)-4-[2-piperidin-4-yl-4-(trifluoromethyl)phenoxy]benzenesulfonamide] the figure was 52 nM; with `CCc1ccc(Oc2ccc(S(=O)(=O)Nc3nccs3)cc2C#N)c(-c2ccnn2C)c1` [Example 350, 3-cyano-4-[4-ethyl-2-(1-methyl-1H-pyrazol-5-yl)phenoxy]-N-1,3-thiazol-2-ylbenzenesulfonamide], 15 nM. Same read-out and setting: for `CC(C)(C)n1nccc1-c1cc(F)ccc1Oc1cc(F)c(S(=O)(=O)Nc2cscn2)cc1Cl` [Example 519, 4-[2-(1-tert-butyl-1H-pyrazol-5-yl)-4-fluorophenoxy]-5-chloro-2-fluoro-N-1,3-thiazol-4-ylbenzenesulfonamide] the value was 1200 nM; for `O=S(=O)(Nc1cscn1)c1cc(Cl)c(Oc2ccc(F)cc2-c2c[nH]nn2)cc1F` [Example 521, 5-chloro-2-fluoro-4-[4-fluoro-2-(1H-1,2,3-triazol-4-yl)phenoxy]-N-1,3-thiazol-4-ylbenzenesulfonamide], 2900 nM; for `N#Cc1cc(S(=O)(=O)Nc2nccs2)ccc1Oc1ccccc1-c1cn[nH]c1N` [Example 707, 4-[2-(5-amino-1H-pyrazol-4-yl)phenoxy]-3-cyano-N-1,3-thiazol-2-ylbenzenesulfonamide], 120 nM. Take `Cn1nccc1-c1cc(Cl)ccc1Oc1ccc(S(=O)(=O)Nc2ncc(C(F)(F)F)cn2)cc1C#N` [Example 462, 4-[4-chloro-2-(1-methyl-1H-pyrazol-5-yl)phenoxy]-3-cyano-N-[5-(trifluoromethyl)pyrimidin-2-yl]benzenesulfonamide]: the IC50 is 51000 nM. As to `Cn1nccc1-c1cc(I)ccc1Oc1ccc(S(=O)(=O)Nc2nccs2)cc1C#N` [Example 312, 3-cyano-4-[4-iodo-2-(1-methyl-1H-pyrazol-5-yl)phenoxy]-N-1,3-thiazol-2-ylbenzenesulfonamide], the IC50 is 17 nM. Still for that read-out and setting: for `Cc1cc(-c2ccc(Oc3ccc(S(=O)(=O)Nc4nccs4)cc3C#N)cc2)n(CCO)n1` [Example 374, 3-cyano-4-{4-[1-(2-hydroxyethyl)-3-methyl-1H-pyrazol-5-yl]phenoxy}-N-1,3-thiazol-2-ylbenzenesulfonamide] the value was 1900 nM; for `N#Cc1cc(S(=O)(=O)Nc2ncc(Cl)s2)ccc1Oc1ccc(OC(F)(F)F)cc1-c1cn[nH]c1` [Example 591, N-(5-Chloro-1,3-thiazol-2-yl)-3-cyano-4-[2-(1H-pyrazol-4-yl)-4-(trifluoromethoxy)phenoxy]benzenesulfonamide], 73 nM; for `Cc1ccc(NS(=O)(=O)c2ccc(Oc3ccccc3-c3ccccc3)c(C#N)c2)nc1` [Example 424, 4-(biphenyl-2-yloxy)-3-cyano-N-(5-methylpyridin-2-yl)benzenesulfonamide], more than 3000 nM. On the same count and under the same terms, with `N#Cc1cc(S(=O)(=O)Nc2nccs2)ccc1Oc1ccc(-n2cc(C(N)=O)cn2)cc1` [Example 379, 1-(4-{2-cyano-4-[(1,3-thiazol-2-ylamino)sulfonyl]phenoxy}phenyl)-1H-pyrazole-4-carboxamide] the figure was more than 1000 nM. The same measure, in the same setting: for `CCn1cc(C(F)(F)F)nc1-c1ccc(Oc2ccc(S(=O)(=O)Nc3nccs3)cc2C#N)cc1` [Example 316, 3-cyano-4-{4-[1-ethyl-4-(trifluoromethyl)-1H-imidazol-2-yl]phenoxy}-N-1,3-thiazol-2-ylbenzenesulfonamide] the value was 740 nM; for `O=S(=O)(Nc1ncc(Cl)s1)c1cc(F)c(Oc2ccc(F)cc2-c2cn[nH]c2)cc1F` [Example 614, N-(5-chloro-1,3-thiazol-2-yl)-2,5-difluoro-4-[4-fluoro-2-(1H-pyrazol-4-yl)phenoxy]benzenesulfonamide], 180 nM. For `O=S(=O)(Nc1nncs1)c1cc(Cl)c(Oc2ccc(Cl)cc2C2CCNCC2)cc1F` [Example 765, 5-chloro-4-(4-chloro-2-piperidin-4-ylphenoxy)-2-fluoro-N-1,3,4-thiadiazol-2-ylbenzenesulfonamide], the IC50 was 110 nM.

`N#Cc1cc(S(=O)(=O)Nc2nccs2)ccc1Oc1ccc(Cl)cc1-c1cccnc1` [Example 700, 4-(4-chloro-2-pyridin-3-ylphenoxy)-3-cyano-N-1,3-thiazol-2-ylbenzenesulfonamide]: the IC50 was 57 nM. The same measure, in the same setting: with `O=S(=O)(Nc1ncns1)c1cc(Cl)c(Oc2ccc(Cl)cc2C2CCNCC2)cc1F` [Example 796, 5-chloro-4-(4-chloro-2-piperidin-4-ylphenoxy)-2-fluoro-N-1,2,4-thiadiazol-5-ylbenzenesulfonamide] the figure was 2.1 nM. Same read-out and setting: with `Cn1nccc1-c1cc(F)ccc1Oc1ccc(S(=O)(=O)Nc2ccncn2)cc1Cl` [Example 669, 3-Chloro-4-[4-fluoro-2-(1-methyl-1H-pyrazol-5-yl)phenoxy]-N-pyrimidin-4-ylbenzenesulfonamide] the figure was 200 nM.

For the compound `Cn1nc(C(F)(F)F)cc1-c1ccc(Oc2ccc(S(=O)(=O)Nc3nccs3)cc2C#N)c(F)c1` [Example 330, 3-cyano-4-{2-fluoro-4-[1-methyl-3-(trifluoromethyl)-1H-pyrazol-5-yl]phenoxy}-N-1,3-thiazol-2-ylbenzenesulfonamide], the IC50 was 250 nM. As to `O=S(=O)(Nc1ncns1)c1cc(F)c(Oc2ccc(C(F)(F)F)cc2-c2ccn[nH]2)cc1F` [Example 789, 2,5-difluoro-4-[2-(1H-pyrazol-5-yl)-4-(trifluoromethyl)phenoxy]-N-1,2,4-thiadiazol-5-ylbenzenesulfonamide], the IC50 is 2.1 nM. The same measure, in the same setting: for `Cn1nccc1-c1cc(F)ccc1Oc1c(F)cc(S(=O)(=O)Nc2ncns2)cc1C#N` [Example 675, 3-cyano-5-fluoro-4-[4-fluoro-2-(1-methyl-1H-pyrazol-5-yl)phenoxy]-N-1,2,4-thiadiazol-5-ylbenzenesulfonamide] the value was 370 nM.

Staying with this experiment, now noted: estimated IC50; hSCN9A HEK cells, PatchXpress platform; Examples 815-1040.
On to `N#Cc1cc(S(=O)(=O)Nc2ncns2)ccc1Oc1cc(OC(F)(F)F)c(F)cc1-c1ccnnc1` [Example 964, 3-cyano-4-[4-fluoro-2-pyridazin-4-yl-5-(trifluoromethoxy)phenoxy]-N-1,2,4-thiadiazol-5-ylbenzenesulfonamide], for which the IC50 is 21 nM.

For the compound `CCN1CC(n2nccc2-c2cc(C(F)(F)F)ccc2Oc2ccc(S(=O)(=O)Nc3ncns3)cc2C#N)C1` [Example 1033, 3-Cyano-4-{2-[1-(1-ethylazetidin-3-yl)-1H-pyrazol-5-yl]-4-(trifluoromethyl)phenoxy}-N-1,2,4-thiadiazol-5-ylbenzenesulfonamide], the IC50 is 3.5 nM. For the compound `O=S(=O)(Nc1ncns1)c1cc(F)c(Oc2cc(F)c(Cl)cc2-c2ccnnc2)cc1F` [Example 936, 4-(4-chloro-5-fluoro-2-pyridazin-4-ylphenoxy)-2,5-difluoro-N-1,2,4-thiadiazol-5-ylbenzenesulfonamide], the IC50 is 8 nM. With `O=S(=O)(Nc1ncns1)c1ccc(Oc2ccc(OC(F)(F)F)cc2-c2ccnnc2)c(Cl)c1` [Example 900, 3-chloro-4-[2-pyridazin-4-yl-4-(trifluoromethoxy)phenoxy]-N-1,2,4-thiadiazol-5-ylbenzenesulfonamide], the IC50 is 2.8 nM. On the same count and under the same terms, with `N#Cc1ccc(Oc2cc(F)c(S(=O)(=O)Nc3ncns3)cc2Cl)c(-c2cn[nH]c2)c1` [Example 850, 5-chloro-4-[4-cyano-2-(1H-pyrazol-4-yl)phenoxy]-2-fluoro-N-1,2,4-thiadiazol-5-ylbenzenesulfonamide] the figure was 3.2 nM.

The record behind these values is patent US8541588B2, “Sulfonamide derivatives” (Pfizer Limited, priority 2009, dated 2013).
